# Article PMC6321136, “Combined In Vitro Studies and in Silico Target Fishing for the Evaluation of the Biological Activities of Diphylleia cymosa and Podophyllum hexandrum” (Molecules, 2018)
# Like-named read-outs stand apart in the source and are kept apart here.
# Legend:
# Cytotoxicity = tested on: Cytotoxicity; parameters: method as in PubChem Bioassay AID 624476; details: ref PubChem Bioassay AID 624476; cited from earlier work
# [1] = tested on: Cytotoxicity, Agonist, p53; parameters: method as in PubChem Bioassay AID 651633; details: ref PubChem Bioassay AID 651633; cited from earlier work
# Agonist, Histone H2A.x = tested on: Agonist, Histone H2A.x; parameters: method as in PubChem Bioassay AID 1224845; details: ref PubChem Bioassay AID 1224845; cited from earlier work
# [2] = tested on: Agonist, glucocorticoid receptor (GR); parameters: method as in PubChem Bioassay AID 720719; details: ref PubChem Bioassay AID 720719; cited from earlier work
# [3] = tested on: Cytotoxicity, Activate, aryl hydrocarbon receptor (AhR); parameters: method as in PubChem Bioassay AID 743086; details: ref PubChem Bioassay AID 743086; cited from earlier work
# [4] = tested on: Antagonist, NFkB Signaling Pathway; parameters: method as in PubChem Bioassay AID 624479; details: ref PubChem Bioassay AID 624479; cited from earlier work
# Anti-Inflammatory model [5] = tested on: Anti-Inflammatory model; parameters: method as in PubChem Bioassay AID 489035; details: ref PubChem Bioassay AID 489035; cited from earlier work
# [6] = tested on: 1-acylglycerol-3-phosphate O-acyltransferase ABHD5; parameters: method as in PubChem Bioassay AID 493027; details: ref PubChem Bioassay AID 493027; cited from earlier work
# Anti-Inflammatory model [7] = tested on: Anti-Inflammatory model; parameters: method as in PubChem Bioassay AID 435020; details: ref PubChem Bioassay AID 435020; cited from earlier work
# [8] = tested on: Enterohemorrhagic E. coli ATCC 43895-EHEC; assay: Antibacterial microdilution assay; type: cell-based, Escherichia coli
# Agonist, hypoxia = tested on: Agonist, hypoxia; parameters: method as in PubChem Bioassay AID 1224894; details: ref PubChem Bioassay AID 1224894; cited from earlier work
# [9] = tested on: Antagonist, retinoid-related orphan receptor gamma (ROR-gamma); parameters: method as in PubChem Bioassay AID 1159523; details: ref PubChem Bioassay AID 1159523; cited from earlier work
# [10] = tested on: Agonist, peroxisome proliferator-activated receptor delta (PPARd); parameters: method as in PubChem Bioassay AID 743227; details: ref PubChem Bioassay AID 743227; cited from earlier work
# Cytotoxicity, A549 = tested on: Cytotoxicity, A549; parameters: method as in PubChem Bioassay AID 371; details: ref PubChem Bioassay AID 371; cited from earlier work
# [11] = tested on: Cytotoxicity, Agonist, hypoxia; parameters: method as in PubChem Bioassay AID 1224844; details: ref PubChem Bioassay AID 1224844; cited from earlier work
# Anticancer, Lung Tumor = tested on: Anticancer, Lung Tumor; parameters: method as in PubChem Bioassay AID 270; details: ref PubChem Bioassay AID 270; cited from earlier work
# [12] = tested on: Cell Cycle Modulation (counterscreen); parameters: method as in PubChem Bioassay AID 1117349; details: ref PubChem Bioassay AID 1117349; cited from earlier work
# [13] = DPPH radical scavenger activity
# Protocol: The evaluation of the antioxidant activity using the 2,2-diphenyl-1-picrylhydrazyl radical (DPPH) was performed according to the method proposed by Mensor et al., with adaptations. The samples were dissolved in MeOH at concentrations ranging from 1.0 to 200 μg/mL. A portion of 250 μL of each sample was added to a 96-well microplate. MeOH and pyrogallol (50 µg/mL) were employed as negative and positive controls, respectively. Then, 100 μL of either MeOH (blank wells) or DPPH solution (120 μg/mL, reaction wells) was added to the microplate. The reading was performed on a microplate reader (EL808IU-Biotek model, Biotek, Winooski, VT, USA), at 5 min intervals for a total of 45 min, at 515 nm. The percentage of radical scavenging activity (%RSA) was calculated using the following equation: % RSA = ((AC − AS)/AC) × 100, where AC is the absorbance of control and AS is the absorbance of samples taken at 35 min. The results were expressed in EC50 (effective concentration for 50% capture of the radicals) determined by non-linear regression using GraphPad Prism, version 6.0.
# THP-1 cells = THP-1 cells at 10 µM; ref [69]; cited from earlier work
# [14] = tested on: Antagonist, retinoic acid receptor (RAR); parameters: method as in PubChem Bioassay AID 1159555; details: ref PubChem Bioassay AID 1159555; cited from earlier work
# [15] = tested on: Anticancer, non-Hodgkin lymphoma; parameters: method as in PubChem Bioassay AID 651568; details: ref PubChem Bioassay AID 651568; cited from earlier work
# Anticancer, Leukemia = tested on: Anticancer, Leukemia; parameters: method as in PubChem Bioassay AID 1053195; details: ref PubChem Bioassay AID 1053195; cited from earlier work
# Anti-Inflammatory model [16] = tested on: Anti-Inflammatory model; parameters: method as in PubChem Bioassay AID 602277; details: ref PubChem Bioassay AID 602277; cited from earlier work
# [17] = tested on: Agonist, endoplasmic reticulum stress response; parameters: method as in PubChem Bioassay AID 1159519; details: ref PubChem Bioassay AID 1159519; cited from earlier work
# [18] = parameters: method as in Dar et al. [63]; details: ref Dar et al. [63]; cited from earlier work
# [19] = tested on: Cytotoxicity, Agonist, RXR; parameters: method as in PubChem Bioassay AID 1159529; details: ref PubChem Bioassay AID 1159529; cited from earlier work
smiles,measurement,setting,value
"COc1cc([C@@H]2c3cc4c(cc3[C@H](O)[C@H]3COC(=O)[C@H]23)OCO4)cc(OC)c1OC [Podophyllotoxin, podophyllotoxin]",Exper. Activity,Cytotoxicity,Inactive
same,Exper. Activity,[1],Inactive
same,Exper. Activity,"Agonist, Histone H2A.x",Inactive
same,Exper. Activity,[2],Inactive
same,Exper. Activity,[3],Inactive
same,Exper. Activity,[4],Inactive
same,Exper. Activity,Anti-Inflammatory model [5],Inactive
same,Exper. Activity,[6],Inactive
same,Exper. Activity,Anti-Inflammatory model [7],Active
same,EHEC E. coli Mean ± SD (percentage of inhibition of microbial growth),[8]; 250 µg/mL,No antibacterial activity
same,inhibition at 250 µg/mL,"[8]; Escherichia coli, ATCC43895, read-out: EHEC E. coli Mean ± SD (percentage of inhibition of microbial growth)",33 ± 7.76%
same,Exper. Activity,"Agonist, hypoxia",Inactive
same,Exper. Activity,[9],Active
same,Exper. Activity,[10],Inactive
same,Exper. Activity,"Cytotoxicity, A549",Active
same,Exper. Activity,[11],Inactive
same,Exper. Activity,"Anticancer, Lung Tumor",Inactive
same,Exper. Activity,[12],Active
same,Antioxidant Activity (IC50-µg/mL) DPPH Radical Sequestration,[13],>200 µg/mL
same,cytotoxicity,THP-1 cells,no cytotoxicity was observed
same,Exper. Activity,[14],Active
same,Exper. Activity,[15],Inactive
same,Exper. Activity,"Anticancer, Leukemia",Inactive
same,Exper. Activity,Anti-Inflammatory model [16],Active
same,Exper. Activity,[17],Inactive
same,IC50 TBARS lipid peroxidation,[18],higher than 250 μg/mL
same,Exper. Activity,[19],Inactive
